Results from ChEMBL document CHEMBL1201862, “PubChem BioAssay data set” (2004).
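Grown in 96-well plates, cells were treated for 48 hours with each compound at five concentrations. Insufficient inhibition: endpoint recorded as highest concentration tested. The concentration for 50% growth inhibition is given as GI50.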 The source made the active and inactive calls. Cut-off read from the data, not from the text of the source: active = GI50 up to about 1.1 µM and inactive = higher.

What was measured:
Experiment in all cases: NCI tumour cell line growth inhibition, 48 h
[1] = system: PC-3
[2] = system: SR
[3] = system: IGROV-1
[4] = system: OVCAR-8
[5] = system: MDA-MB-231
[6] = system: COLO 205
[7] = system: MDA-MB-435
[8] = system: UACC-62
[9] = system: RPMI-8226
[10] = system: ACHN
[11] = system: A498
[12] = system: M14
[13] = system: TK-10
[14] = system: 786-0
[15] = system: BT-549
[16] = system: K562
[17] = system: HCT-116
[18] = system: UACC-257
[19] = system: NCI/ADR-RES

Row | Compound | GI50 [1] | GI50 [2] | GI50 [3] | GI50 [4] | GI50 [5] | GI50 [6] | GI50 [7] | GI50 [8] | GI50 [9] | GI50 [10] | GI50 [11] | GI50 [12] | GI50 [13] | GI50 [14] | GI50 [15] | GI50 [16] | GI50 [17] | GI50 [18] | GI50 [19]
1 | COC(=O)c1cc2c3c(cc(NCCN)c2[nH]1)N(C(=O)c1cc2cc(OC)c(OC)c(OC)c2[nH]1)CC3CCl (stereo unspecified) | 0.0269 µM (active) | 0.0153 µM (active) | 0.012 µM (active) | 0.109 µM (active) | 0.0638 µM (active) | 0.0559 µM (active) | 0.152 µM (active) | 0.0594 µM (active) | 0.25 µM (active) | 0.0889 µM (active) | 0.131 µM (active) | 0.118 µM (active) | 0.366 µM (active) | 0.0423 µM (active) | 0.229 µM (active) | 0.0247 µM (active) | 0.0198 µM (active) | 0.214 µM (active) | 0.358 µM (active)
2 | COc1ccc2c(c1)-c1c(c3cc(OC)ccc3n1CCN1CCOCC1)CC2 | 24.2 µM (inactive) | 3.94 µM (inactive) | 18.1 µM (inactive) | 28.6 µM (inactive) | 34.4 µM (inactive) | 20 µM (inactive) | 49.1 µM (inactive) | 16.8 µM (inactive) | 20.5 µM (inactive) | 29.4 µM (inactive) | 46.7 µM (inactive) | 15.8 µM (inactive) | 32.7 µM (inactive) | 20.2 µM (inactive) | 28.4 µM (inactive) | 13.2 µM (inactive) | 27.2 µM (inactive) | 33.4 µM (inactive) | 20.7 µM (inactive)
3 | O=c1[nH]c2ccc(CC(=S)N3CCN(c4ccccc4)CC3)cc2o1 | > 100 µM (inactive) | > 58.3 µM (inactive) | > 90.8 µM (inactive) | > 79.1 µM (inactive) | > 100 µM (inactive) | 97.7 µM (inactive) | 54.5 µM (inactive) | > 66.4 µM (inactive) | > 66.5 µM (inactive) | > 100 µM (inactive) | > 30 µM (inactive) | > 100 µM (inactive) | > 100 µM (inactive) | > 90.2 µM (inactive) | > 100 µM (inactive) | 53.2 µM (inactive) | > 80.5 µM (inactive) | > 100 µM (inactive) | > 44.5 µM (inactive)
4 | C=C(C)C(=O)O[C@@H]1C[C@@]2(C)O[C@@H]2C[C@H](O)/C(C)=C/[C@H]2OC(=O)C(=C)[C@@H]21 | > 100 µM (inactive) | 28.2 µM (inactive) | > 100 µM (inactive) | 40.6 µM (inactive) | > 100 µM (inactive) | 42 µM (inactive) | 59.6 µM (inactive) | 74.5 µM (inactive) | 40.1 µM (inactive) | 47.2 µM (inactive) | > 100 µM (inactive) | 43.1 µM (inactive) | > 100 µM (inactive) | 38.9 µM (inactive) | 63.1 µM (inactive) | 29 µM (inactive) | 33.7 µM (inactive) | > 100 µM (inactive) | 60.7 µM (inactive)
5 | COc1cc(C2S/C(=C/c3ccccc3)C(=O)N2c2ccc([N+](=O)[O-])cc2)cc(OC)c1OC (stereo unspecified) | > 100 µM (inactive) | 9.27 µM (inactive) | > 20.6 µM (inactive) | > 100 µM (inactive) | > 100 µM (inactive) | 26.1 µM (inactive) | 18 µM (inactive) | 3.91 µM (inactive) | > 57.7 µM (inactive) | > 21 µM (inactive) | 73.1 µM (inactive) | 26.1 µM (inactive) | > 100 µM (inactive) | > 100 µM (inactive) | 44.9 µM (inactive) | 3.68 µM (inactive) | > 64.9 µM (inactive) | 60.7 µM (inactive) | > 80.4 µM (inactive)
6 | CCC(CON(C)c1ccccc1)(SC)SC | > 100 µM (inactive) | > 100 µM (inactive) | > 100 µM (inactive) | > 100 µM (inactive) | > 100 µM (inactive) | > 100 µM (inactive) | > 100 µM (inactive) | > 100 µM (inactive) | > 100 µM (inactive) | > 100 µM (inactive) |  | > 100 µM (inactive) | > 100 µM (inactive) | > 100 µM (inactive) | > 100 µM (inactive) |  | > 100 µM (inactive) | > 100 µM (inactive) | > 100 µM (inactive)
7 | COc1cc2c(c(OC)c1)C(=O)O[C@H](C)CCCC/C=C/C2 | 7.78 µM (inactive) | > 53.5 µM (inactive) | 9.06 µM (inactive) | 33.3 µM (inactive) | 10.9 µM (inactive) | 10.9 µM (inactive) | 4.73 µM (inactive) | 8.93 µM (inactive) | 9.12 µM (inactive) | 12.5 µM (inactive) | 39.7 µM (inactive) | 12.7 µM (inactive) | 15.8 µM (inactive) | 10.9 µM (inactive) | 13.4 µM (inactive) | 6.24 µM (inactive) | 8.61 µM (inactive) | 10.9 µM (inactive) | 29.2 µM (inactive)
8 | CC(=O)Nc1ccc2nc(-c3cccc(Cl)c3)cc(O)c2c1 | 4.72 µM (inactive) | 5.37 µM (inactive) | 13.4 µM (inactive) | 36.9 µM (inactive) | 0.863 µM (active) | 2.99 µM (inactive) | 2.35 µM (inactive) | 2.42 µM (inactive) | 66.1 µM (inactive) | 64.6 µM (inactive) |  | 11.1 µM (inactive) | > 100 µM (inactive) | 13.4 µM (inactive) | 15.4 µM (inactive) |  |  | > 100 µM (inactive) | > 100 µM (inactive)
9 | O=c1oc2ccc3ccccc3c2cc1-c1nc2ccc([N+](=O)[O-])cc2o1 | > 100 µM (inactive) | > 71.4 µM (inactive) | 28.4 µM (inactive) | > 100 µM (inactive) | 43.6 µM (inactive) | > 100 µM (inactive) | > 58.3 µM (inactive) | 59 µM (inactive) | > 51.1 µM (inactive) | 8.57 µM (inactive) | 38.5 µM (inactive) | 25.5 µM (inactive) | 28.3 µM (inactive) | 12.4 µM (inactive) | > 44.5 µM (inactive) | > 62.1 µM (inactive) | 48.6 µM (inactive) | > 100 µM (inactive) | > 80.5 µM (inactive)
10 | ClC(Cl)(Cl)C1CCOC1n1nc2ccccc2n1 (stereo unspecified) | > 100 µM (inactive) | > 100 µM (inactive) | > 100 µM (inactive) | > 100 µM (inactive) | > 100 µM (inactive) | > 100 µM (inactive) | > 100 µM (inactive) | > 100 µM (inactive) |  |  | > 100 µM (inactive) | > 100 µM (inactive) | > 100 µM (inactive) | > 100 µM (inactive) | > 100 µM (inactive) | > 100 µM (inactive) | > 100 µM (inactive) | > 100 µM (inactive) | > 100 µM (inactive)
11 | Cc1ccc(Nc2nnc3n2S(=O)(=O)c2cc(C)c(Cl)cc2S3)cc1 | 4.39 µM (inactive) | 2.4 µM (inactive) | 4.4 µM (inactive) | 12.6 µM (inactive) | 13.4 µM (inactive) |  | 3.64 µM (inactive) |  | 18.4 µM (inactive) | 27.9 µM (inactive) | 15.4 µM (inactive) | 7.14 µM (inactive) | 35.2 µM (inactive) | 10.3 µM (inactive) | 5.28 µM (inactive) | 3.4 µM (inactive) | 6.37 µM (inactive) | 34.5 µM (inactive) | 16.1 µM (inactive)
12 | CS(=O)(=O)N1CC(CI)c2ccc(O)cc21 (stereo unspecified) | 2.6 µM (inactive) | 1.4 µM (inactive) | 3.98 µM (inactive) | 2.89 µM (inactive) | 2.84 µM (inactive) | 2.88 µM (inactive) | 1.89 µM (inactive) |  | 1.61 µM (inactive) | 2.67 µM (inactive) | 2.77 µM (inactive) |  | 2.28 µM (inactive) | 3.24 µM (inactive) | 3.68 µM (inactive) | 2.66 µM (inactive) | 2.98 µM (inactive) | 3.36 µM (inactive) | 2.75 µM (inactive)
13 | Cc1cc(C)nc(NS(=O)(=O)c2ccc(Nc3c4ccccc4nc4c(C(=O)NCCCN(CCO)CCO)cccc34)cc2)n1 | 14.9 µM (inactive) | 9.75 µM (inactive) | 15.5 µM (inactive) | 17.3 µM (inactive) | 27.4 µM (inactive) | 14 µM (inactive) | 16 µM (inactive) | 14 µM (inactive) | 9.38 µM (inactive) | 22.9 µM (inactive) | 54.3 µM (inactive) | 31.8 µM (inactive) | > 100 µM (inactive) | > 10 µM (inactive) | 11.6 µM (inactive) | 10.6 µM (inactive) |  | > 100 µM (inactive) | > 100 µM (inactive)
14 | CCOC(=O)C1=CNC(C(=O)OCC)C1c1cccn1-c1ccc(Cl)cc1[N+](=O)[O-] (stereo unspecified) | 20.7 µM (inactive) | 25.7 µM (inactive) | 9.4 µM (inactive) | 25.8 µM (inactive) | 10 µM (inactive) | 31.2 µM (inactive) | 21.5 µM (inactive) | 15.7 µM (inactive) |  | 30.3 µM (inactive) | 50.7 µM (inactive) | 15.3 µM (inactive) | 13.1 µM (inactive) | 19.1 µM (inactive) | 22.8 µM (inactive) | 23.8 µM (inactive) | 17.1 µM (inactive) | 24.4 µM (inactive) | 18.5 µM (inactive)
15 | CCCCc1ccc(Nc2nc3c(ncn3C3CC(O)C(CN=[N+]=[N-])O3)c(=O)[nH]2)cc1 (stereo unspecified) | > 100 µM (inactive) | > 100 µM (inactive) | > 100 µM (inactive) | > 100 µM (inactive) | > 100 µM (inactive) | > 100 µM (inactive) | > 100 µM (inactive) | > 100 µM (inactive) | > 100 µM (inactive) | > 100 µM (inactive) | > 100 µM (inactive) | > 100 µM (inactive) |  | > 100 µM (inactive) | > 100 µM (inactive) | > 100 µM (inactive) | > 100 µM (inactive) | > 100 µM (inactive) | > 100 µM (inactive)
